For the experiment, the target named is T1, ZAC (Homo sapiens, UniProt Q401N2).
T1 sequence (Q401N2 26-412): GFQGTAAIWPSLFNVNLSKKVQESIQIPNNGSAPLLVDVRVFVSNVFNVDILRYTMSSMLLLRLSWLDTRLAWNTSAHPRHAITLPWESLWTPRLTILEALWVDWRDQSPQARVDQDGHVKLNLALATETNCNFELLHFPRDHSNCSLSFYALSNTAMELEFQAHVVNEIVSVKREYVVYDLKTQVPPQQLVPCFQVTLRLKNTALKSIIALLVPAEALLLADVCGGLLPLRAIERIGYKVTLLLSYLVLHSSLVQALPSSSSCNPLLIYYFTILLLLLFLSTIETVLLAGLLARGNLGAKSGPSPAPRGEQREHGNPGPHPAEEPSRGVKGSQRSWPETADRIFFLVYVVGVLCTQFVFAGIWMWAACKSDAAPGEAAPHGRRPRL
Briefly: TEVC recordings, Zn2+-evoked currents at ZAC expressed in Xenopus oocytes. In kind it is cell-based. The settings on record: for Antagonist activity at ZAC in SAR study (in words): 1 mM Zn2+ as agonist, tested at three concentrations (0.3-3-30 μM or 1-10-100 μM); for Fitted inhibition range, Inhibition (%) / Hill coefficient nH ± S.E.M. / IC50: Zn2+ (1 mM) as agonist, TEVC; for IC50: steady-state current; for Extent of inhibition of Zn2+-induced responses (in words): Zn2+ (1 mM), full concentration-inhibition curves. Here is the method:
The cDNAs for the various WT and chimeric CLR subunits were linearized and subsequently transcribed and capped mMessage mMachine T7 RNA transcription kit (Ambion, Waltham, MA). Different amounts of cRNA mixtures were injected for ZAC (9.2–36.8 nL in a concentration of 0.05 μg/μL), […] nAChR (9.2–36.8 nL in a concentration of 0.1 μg/μL of each subunit in a ratio of 1:1), hα1 GlyR (9.2–36.8 nL in a concentration of 0.05 μg/μL), hα1β2γ2s GABAAR (9.2–36.8 nL in a concentration of 0.05 μg/μL of each subunit in a ratio of 1:1:3), m5-HT3AR (9.2–36.8 nL in a concentration of 0.05 μg/μL), m5-HT3A/ZAC (9.2–36.8 nL in a concentration of 0.207 μg/μL), and ZAC/hai-Gly (9.2–36.8 nL in a concentration of 0.206 μg/μL). Oocytes were incubated in a sterile modified Barth’s solution [88 mM NaCl, 1 mM KCl, 15 mM HEPES (pH 7.5), 2.4 mM NaHCO3, 0.41 mM CaCl2, 0.82 mM MgSO4, 0.3 mM Ca(NO3)2, 100 U/ml penicillin and 100 μg/ml strep-tomycin] at 18 °C for 2 days after injection.
On the day of experiment, all compound dilutions were prepared in a saline solution [115 mM NaCl, 2.5 mM KCl, 10 mM MOPS (pH 7.5), 1.8 mM CaCl2, 0.1 mM MgCl2] and pH adjusted to 7.5 (if needed). Oocytes were placed in a recording chamber continuously perfused with this saline solution, and the compounds were applied in the perfusate. Both voltage and current electrodes were agar-plugged with 3 M KCl with a resistance of 0.2–2.0 MΩ. Oocytes were voltage-clamped at −50 mV (unless otherwise stated) by a Gene Clamp 500B amplifier (Axon Instruments, Union City, CA), while current signals were digitized by a Digidata 1320. Currents were recorded using pCLAMP 10 (Molecular Devices, Sunnyvale, CA). The recordings were performed at room temperature.
In all recordings, the compounds or compound combinations were applied in the bath until the peak current decayed to a steady state (up to 30 sec at the most). […] The functional properties of the modulators at the CLRs were determined by pre-application of the modulator to the perfusate 30 sec and followed by co-application of the modulator and the agonist to the perfusate. In all recordings, washes of 1–5 min were executed between the applications to prevent receptor desensitization, the duration of these washes depending on the kinetics of the respective receptors and the “stickyness” of the respective compounds. […] For the selectivity and mode-of-action studies, the agonist concentrations used for different CLRs or chimeric CLRs were in the EC20–EC40 range (verified on the day of experiment), as this enabled us to investigate both for putative positive and negative receptor modulation exerted by TTFB (hα3β4 nAChR, 3 μM (S)-nicotine; m5-HT3AR, 2 μM 5-HT; hα1 GlyR, 100 μM glycine; hα1β2γ2S GABAAR, 30 μM GABA; m5-HT3A/ZAC, 0.3 μM 5-HT; ZAC/hɑ1-Gly, 2 μM Zn^2+).
Data analysis of the results from the TEVC recordings were performed using Clampfit software version 10.5 (Molecular Devices, Crawley, UK) and GraphPad Prism version 7.0c (GraphPad Software, Inc. La Jolla, CA). Data for the test compounds were normalized to either the maximal agonist-evoked current or to an EC20–EC50-mediated response elicited by the agonist on each oocyte (specified in each case). Unless otherwise stated, data for agonist-induced responses in the presence of the antagonists were extracted from the plateau (or steady-state) of the agonist-evoked current. Concentration-response and concentration-inhibition curves were fitted in GraphPad Prism by nonlinear regression using the equation for sigmoidal dose-response with variable slope. I-V relationships were analyzed by fitting the curves with a third order polynomial model. Each data point represents the mean ± S.E.M. value of recordings performed on at least five oocytes from at least two different batches.

Where [1] appears, read: read-out: pIC50 ± S.E.M. (converted).

The values that follow come from publication PMC9979163, “Discovery and functional characterization of N-(thiazol-2-yl)-benzamide analogs as the first class of selective antagonists of the Zinc-Activated Channel (ZAC)” (Biochemical pharmacology, 2021).

Structures are written as SMILES. Where two headings read alike, the source gives them in different places.

For the compound `CCOC(=O)Cc1csc(NC(=O)c2cc(Br)ccc2Cl)n1` [2c], the “Antagonist activity at ZAC in SAR study (in words)” value (from here on “Antagonist activity at ZAC”) is “slightly more potent and efficacious ZAC inhibition than 1”. Still for that read-out and setting: to `Cc1csc(NC(=O)c2cccc(Br)c2)n1` [3c] belongs “weak ZAC activity”; to `CC(=O)c1sc(NC(=O)c2cc(F)c(F)cc2Cl)nc1C` [6c], “inactivity”; to `COC(=O)c1sc(NC(=O)c2cc(C)cc(C)c2)nc1C` [4d], “did not alter its antagonist activity substantially”. Take `COC(=O)c1sc(NC(=O)c2ccncc2)nc1C` [4h]: the “Antagonist activity at ZAC” value was “inactive”. Turning to `CC(C)c1csc(NC(=O)c2cccc(Nc3ncccn3)c2)n1` [6m], the “Antagonist activity at ZAC” value is listed as “further reduced ZAC activity”. For the compound `COC(=O)c1sc(NC(=O)c2ccccc2C)nc1C` [4a], the “Antagonist activity at ZAC” value was “essentially inactive”. On the same count and under the same terms, with `CC(C)(C)c1nnc(NC(=O)c2cccc(Br)c2)s1` [3k] the entry was “essentially eliminated ZAC activity”. As for `COc1cc(C(=O)Nc2nc(C(C)(C)C)cs2)cc(OC)c1OC` [5i], the “Antagonist activity at ZAC” value is “essentially inactive”. For the compound `CN(C)c1cccc(C(=O)Nc2nc(C3CC3)cs2)c1` [6l], the “Antagonist activity at ZAC” value was “decreased antagonist potency”.

Take `CN(C)c1cccc(C(=O)Nc2nc(C(C)(C)C)cs2)c1` [5f]: the “Antagonist activity at ZAC” value was “roughly equipotent with 2b”. For the compound `Cc1nc(NC(=O)c2cccc(Br)c2)sc1C` [3g], the “Antagonist activity at ZAC” value is “considerably weaker antagonist”. `CCOC(=O)c1sc(NC(=O)c2ccccc2Cl)nc1C` [4i]: the “Antagonist activity at ZAC” value was “inactive”. As to `O=C(Nc1nnc(C2CCCCC2)s1)c1cc(Br)ccc1Cl` [2f], the “Antagonist activity at ZAC” value is on record as “substantial loss of activity”. For the compound `O=C(Nc1nc(-c2ccc(Br)s2)cs1)c1cccc(Br)c1` [3e], the “Antagonist activity at ZAC” value was “eliminated ZAC activity completely”. Still for that read-out and setting: with `CCOc1ccc(C(=O)Nc2nc(C)c(C(=O)OC)s2)cc1Br` [4g] the entry was “inactive”; with `CCOC(=O)c1sc(NC(=O)c2cc(OC)c(OC)c(OC)c2)nc1C` [4l], “essentially inactive”; with `CCOC(=O)c1sc(NC(=O)c2cccc(Br)c2)nc1C` [3b], “inactive”.

`COc1ccc(Cl)cc1C(=O)Nc1nc(C(C)(C)C)cs1` [5g]: the “Antagonist activity at ZAC” value is “somewhat potent but apparent partial inhibition”. The same measure, in the same setting: to `CCOC(=O)c1sc(NC(=O)c2cc(Cl)cc(Cl)c2)nc1C` [4j] belongs “inactive”; to `CC(C)(C)c1csc(NC(=O)c2c(F)c(F)c(F)c(F)c2F)n1` [5b], “considerably weaker ZAC antagonist”; to `CCOC(=O)c1sc(NC(=O)c2cccnc2)nc1C` [4n], “inactive”. Consider `CCc1nc(NC(=O)c2cccc(Br)c2)sc1C(=O)OC` [3a], for which the “Antagonist activity at ZAC” value was “inactive”. The same measure, in the same setting: to `CC(C)(C)c1csc(NC(=O)c2cccc(Br)c2)n1` [3d] belongs “fairly potent”. Consider `CC(C)(C)c1csc(NC(=O)c2cc(Br)ccc2Cl)n1` [2b], for which the “Antagonist activity at ZAC” value is “slightly more potent and efficacious ZAC inhibition than 1”; the “Fitted inhibition range, Inhibition (%)” value was determined as 88 ± 3%; the “Hill coefficient nH ± S.E.M.” value is reported as −1.2 ± 0.12; the “Extent of inhibition of Zn2+-induced responses (in words)” value was “completely”. In addition, under setting [1], the IC50 is 1320 nM. As to `Cc1cnc(NC(=O)c2cc(Br)ccc2Cl)s1` [2a], the “Antagonist activity at ZAC” value is on record as “inactivity”. Turning to `O=C(Nc1ncc([N+](=O)[O-])s1)c1cccc(Br)c1` [3f], the “Antagonist activity at ZAC” value is “weaker antagonists”. Besides, the IC50 (read-out: IC50) was about 20000 nM.

Consider `CC(C)(C)c1csc(NC(=O)c2cc(F)c(F)cc2Cl)n1` [5h], for which the “Antagonist activity at ZAC” value is listed as “lower potency as ZAC antagonist than 2b”. The same measure, in the same setting: with `CCOC(=O)c1sc(NC(=O)c2ccco2)nc1C` [4o] the entry was “inactive”; with `Cc1cnc(NC(=O)c2cc(F)c(F)cc2Cl)s1` [6b], “inactivity”. On to `O=C(Nc1nccs1)c1cc(F)c(F)cc1Cl` [6a], for which the “Antagonist activity at ZAC” value is reported as “inactivity”. With `COC(=O)c1sc(NC(=O)c2cccc(I)c2)nc1C` [4c], the “Antagonist activity at ZAC” value is given as “did not alter its antagonist activity substantially”; the “Fitted inhibition range, Inhibition (%)” value turned out to be 78 ± 3%; the “Hill coefficient nH ± S.E.M.” value is listed as −0.89 ± 0.06; the “Extent of inhibition of Zn2+-induced responses (in words)” value is reported as “completely”. Under setting [1], the IC50 is 1020 nM. As for `CCOC(=O)c1sc(NC(=O)c2cc(Cl)ccc2OC)nc1C` [4k], the “Antagonist activity at ZAC” value is “inactive”. `COC(=O)c1sc(NC(=O)c2cc([N+](=O)[O-])cc([N+](=O)[O-])c2)nc1C` [4e]: the “Antagonist activity at ZAC” value is recorded as “completely devoid of antagonist activity”. With `COC(=O)c1sc(NC(=O)c2cc([N+](=O)[O-])ccc2Cl)nc1C` [4f], the “Antagonist activity at ZAC” value is “inactive”. For `C=CCN(CC=C)S(=O)(=O)c1ccc(C(=O)Nc2nc(C)c(C(=O)OCC)s2)cc1` [4m], the “Antagonist activity at ZAC” value is “inactive”. Same read-out and setting: to `COC(=O)c1sc(NC(=O)c2ccc(C)cc2)nc1C` [4b] belongs “essentially inactive”; to `O=C(Nc1nc2ccccc2s1)c1cc(Br)ccc1Cl` [2e], “substantial loss of activity”. For `CCOC(=O)Cc1csc(NC(=O)c2cc(Cl)cc(Cl)c2)n1` [6g], the “Antagonist activity at ZAC” value was “inactivity”.

In the case of `Cc1ccc(-c2csc(NC(=O)c3cc(Br)ccc3Cl)n2)cc1` [2d], the “Antagonist activity at ZAC” value is recorded as “reduced substantially”.
